From patent US12617783B2, “Heterocyclic GLP-1R agonists” (BIOMEA FUSION, INC., priority 2024, dated 2026)
pEC50: −log10 of the molar value.

Target: T1, human GLP-1R (Homo sapiens, UniProt P43220)
T1 construct: host or cells: HEK293
Test: GLP-1R cAMP assay (Example B1b, HTRF, 30 min at 37°)
Format: cell-based
Settings: cAMP accumulation in HEK293 expressing human GLP-1R, no BETP, 30 min at 37° (Method B1b), Table 1
Method: Assay was carried out with HEK293 expressing human GLP-1R using HTRF assay, developed by Wuxi Apptec. The method is a competitive assay between native cAMP produced by the cells and exogenous cAMP labeled with a proprietary dye d2. The tracer binding is visualized by a mAb anti-cAMP labeled with Cryptate. The signal (i.e. energy transfer) is inversely proportional to the concentration of CAMP in either standard or experimental sample. Compounds were tested in the absence of BETP. Ten microliter of cell suspension in assay buffer (5 mM HEPES, 500 μM IBMX, 0.1% BSA) were added to each well (1,000 cells per well) in a low volume 384-well plate for the assay. Serially diluted compounds were added in 100 nL volume to duplicate wells, by Labcyte Echo. GLP-1 (7-37) was used as positive control. Assay plate was incubated for 30 minutes at 37°. Stock of cAMP Detection Solution was prepared by mixing 38 parts of cAMP lysis buffer, 1 part of cAMP-D2, 1 part of anti-cAMP cryptate reagent (Cisbio #62AM4PEJ). Ten microliter of the cAMP Detection Solution was added to each well, and the assay plate was incubated for 1 hour at room temperature in the dark. Plates were read on Envision plate reader. The data were analyzed by ScreenUltra in Dotmatics, with % activation expressed using following formula: (Signal ratio […]*10000−negative control)/(postive control−negative control)*100. Dose response curves were plotted and EC50 values calculated by non-linear regression using 4-parameter fit. The potency (EC50) values for cAMP accumulation in HEK293 cells are reported in the Table 1 below (for compounds ID 610-708).

T1 sequence (P43220 24-463): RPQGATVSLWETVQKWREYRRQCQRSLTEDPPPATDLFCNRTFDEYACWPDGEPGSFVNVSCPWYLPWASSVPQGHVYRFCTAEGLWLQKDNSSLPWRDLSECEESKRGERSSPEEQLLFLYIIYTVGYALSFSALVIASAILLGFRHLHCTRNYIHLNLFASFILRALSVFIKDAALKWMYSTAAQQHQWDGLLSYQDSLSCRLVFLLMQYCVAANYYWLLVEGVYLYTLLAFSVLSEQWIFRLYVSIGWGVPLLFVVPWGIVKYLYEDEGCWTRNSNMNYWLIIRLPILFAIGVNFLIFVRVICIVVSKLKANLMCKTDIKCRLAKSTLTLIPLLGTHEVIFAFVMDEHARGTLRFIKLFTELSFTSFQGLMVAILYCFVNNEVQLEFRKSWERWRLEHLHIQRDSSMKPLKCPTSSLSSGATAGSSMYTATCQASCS

| EC50 [µM] | Compound |
| --- | --- |
| 0.004 | Cc1cc(-n2nc3c(c2-n2ccn(-c4ccc5c(cnn5C5CC5)c4F)c2=O)[C@@H]2COC[C@H](C3)N2C(=O)c2cc3cc(C4CCOCC4)ccc3n2[C@@]2(c3noc(=O)[nH]3)C[C@@H]2C)cc(C)c1F [Compound 715, 3-((1S,2S)-1-(2-((4R,8S)-3-(3-(1-cyclopropyl-4-fluoro-1H-indazol-5-yl)-2-oxo-2,3-dihydro-1H-imidazol-1-yl)-2-(4-fluoro-3,5-dimethylphenyl)-2,4,5,7,8,9-hexahydro-4,8-epiminooxocino [5,4-c]pyrazole-10-carbonyl)-5-(tetrahydro-2H-pyran-4-yl)-1H-indol-1-yl)-2-methylcyclopropyl)-1,2,4-oxadiazol-5 (4H)-one] |

Target: T1, human GLP-1R
Test: GLP-1R cAMP assay (Example B1a, HTRF, 30 min at room temperature)
Format: cell-based
Settings: Table 1c, comparative compound; read-out: EC50
Outline: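 Competitive HTRF read-out of cAMP after 30 min room-temperature stimulation, BETP absent, of human GLP-1R-HEK293 cells (1,000/well) in HEPES buffer with 500 μM IBMX and 0.1% BSA. Activation normalised to GLP-1(7-37) positive control. EC50 from 4-parameter non-linear regression.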

| pEC50 | Compound |
| --- | --- |
| 7.94 | CCP(=O)(CC)c1ccc(-n2ccn(-c3c4c(nn3-c3cc(C)c(F)c(C)c3)CCN(C(=O)c3cc5cc(C6CCOCC6)ccc5n3[C@@]3(c5noc(=O)[nH]5)C[C@@H]3C)[C@H]4C)c2=O)cc1NC [Compound 405] |

Same assay, conditions: cAMP accumulation in HEK293 expressing human GLP-1R, no BETP, 30 min room temperature (Method B1a, compounds ID 1-609), Table 1; read-out: EC50

| pEC50 | Compound |
| --- | --- |
| < 5.00 | Cc1cc(-n2nc3c(c2-n2ccn(-c4ccc5c(cnn5C)c4F)c2=O)[C@@H]2CC[C@H](C3)N2C(=O)c2cc3c(OC4CCOC(C)(C)C4)nccc3n2[C@@]2(c3noc(=O)[nH]3)C[C@@H]2C)cc(C)c1F (stereo partly drawn) [Compound 232, 3-[(1S,2S)-1-[4-(2,2-dimethyltetrahydropyran-4-yl)oxy-2-[(1S,8R)-4-(4-fluoro-3,5-dimethyl-phenyl)-3-[3-(4-fluoro-1-methyl-indazol-5-yl)-2-oxo-imidazol-1-yl]-4,5,11-triazatricyclo[6.2.1.02,6]undeca-2,5-diene-11-carbonyl]pyrrolo[3,2-c]pyridin-1-yl]-2-methyl-cyclopropyl]-4H-1,2,4-oxadiazol-5-one] |
| 6.58 | Cc1cc(-n2nc3c(c2-n2ccn(-c4ccc5c(cnn5C)c4F)c2=O)[C@@H]2COC[C@H](C3)N2S(=O)(=O)c2cc3cc([C@H]4CCOC(C)(C)C4)ccc3n2[C@@]2(c3noc(=O)[nH]3)C[C@@H]2C)cc(C)c1F [Compound 536, 3-((1S,2S)-1-(5-((S)-2,2-dimethyltetrahydro-2H-pyran-4-yl)-2-(((4R,8S)-3-(3-(4-fluoro-1-methyl-1H-indazol-5-yl)-2-oxo-2,3-dihydro-1H-imidazol-1-yl)-2-(4-fluoro-3,5-dimethylphenyl)-2,4,5,7,8,9-hexahydro-4,8-epiminooxocino [5,4-c]pyrazol-10-yl)sulfonyl)-1H-indol-1-yl)-2-methylcyclopropyl)-1,2,4-oxadiazol-5 (4H)-one] |
| < 5.00 | Cc1cc(-n2nc3c(c2-n2ccn(-c4ccc5c(cnn5C)c4F)c2=O)[C@@H]2CC[C@H](C3)N2C(=O)c2cc3nc(C4CCOC(C)(C)C4)sc3n2C2(c3noc(=O)[nH]3)CC2C)cc(C)c1F (stereo partly drawn) [Compound 202, 3-[1-[2-(2,2-dimethyltetrahydropyran-4-yl)-5-[(1S,8R)-4-(4-fluoro-3,5-dimethyl-phenyl)-3-[3-(4-fluoro-1-methyl-indazol-5-yl)-2-oxo-imidazol-1-yl]-4,5,11-triazatricyclo[6.2.1.02,6]undeca-2,5-diene-11-carbonyl]pyrrolo[3,2-d]thiazol-4-yl]-2-methyl-cyclopropyl]-4H-1,2,4-oxadiazol-5-one] |
| 7.03 | Cc1cc(-n2nc3c(c2-n2ccn(-c4ccc5c(cnn5C)c4F)c2=O)C2CCC(C3)N2C(=O)c2cc3cc([C@H]4CCOC(C)(C)C4)ccc3n2[C@@]2(c3noc(=O)[nH]3)C[C@@H]2C)cc(C)c1F (stereo partly drawn) [Compound 32, 3-((1S,2S)-1-(5-((S)-2,2-dimethyltetrahydro-2H-pyran-4-yl)-2-(3-(3-(4-fluoro-1-methyl-1H-indazol-5-yl)-2-oxo-2,3-dihydro-1H-imidazol-1-yl)-2-(4-fluoro-3,5-dimethylphenyl)-2,4,5,6,7,8-hexahydro-4,7-epiminocyclohepta [c]pyrazole-9-carbonyl)-1H-indol-1-yl)-2-methylcyclopropyl)-1,2,4-oxadiazol-5 (4H)-one] |
| ≤ 5.00 | Cc1cc(-n2nc3c(c2-n2ccn(-c4ccc5c(cnn5C)c4F)c2=O)[C@H]2CC[C@@H](C3)N2C(=O)c2cc3cc([C@@H]4CCOC5(CC5)C4)ccc3n2[C@@]2(c3noc(=O)[nH]3)C[C@@H]2C)cc(C)c1F [Compound 414, 3-((1S,2S)-1-(2-((4R,7S)-3-(3-(4-fluoro-1-methyl-1H-indazol-5-yl)-2-oxo-2,3-dihydro-1H-imidazol-1-yl)-2-(4-fluoro-3,5-dimethylphenyl)-2,4,5,6,7,8-hexahydro-4,7-epiminocyclohepta [c]pyrazole-9-carbonyl)-5-((R)-4-oxaspiro[2.5]octan-7-yl)-1H-indol-1-yl)-2-methylcyclopropyl)-1,2,4-oxadiazol-5 (4H)-one] |
| 7.10 | Cc1cc(-n2nc3c(c2-n2ccn(-c4ccc5c(cnn5C)c4)c2=O)[C@@H]2CC[C@H](C3)N2C(=O)c2cc3cc([C@H]4CCOC5(CC5)C4)ccc3n2[C@@]2(c3noc(=O)[nH]3)C[C@@H]2C)cc(C)c1F [Compound 323, 3-[(1S,2S)-1-[2-[(1S,8R)-4-(4-fluoro-3,5-dimethyl-phenyl)-3-[3-(1-methylindazol-5-yl)-2-oxo-imidazol-1-yl]-4,5,11-triazatricyclo[6.2.1.02,6]undeca-2,5-diene-11-carbonyl]-5-[(7S)-4-oxaspiro[2.5]octan-7-yl]indol-1-yl]-2-methyl-cyclopropyl]-4H-1,2,4-oxadiazol-5-one] |
| 5.87 | Cc1cc(-n2nc3c(c2-n2ccn(-c4ccc5c(cnn5C)c4F)c2=O)[C@@H]2CC[C@H](C3)N2C(=O)c2cc3cc([C@@H]4CCOC(C)(C)C4)cnc3n2[C@@]2(c3noc(=O)[nH]3)C[C@@H]2C)cc(C)c1F [Compound 312, 3-((1S,2S)-1-(5-((R)-2,2-dimethyltetrahydro-2H-pyran-4-yl)-2-((4S,7R)-3-(3-(4-fluoro-1-methyl-1H-indazol-5-yl)-2-oxo-2,3-dihydro-1H-imidazol-1-yl)-2-(4-fluoro-3,5-dimethylphenyl)-2,4,5,6,7,8-hexahydro-4,7-epiminocyclohepta [c]pyrazole-9-carbonyl)-1H-pyrrolo[2,3-b]pyridin-1-yl)-2-methylcyclopropyl)-1,2,4-oxadiazol-5(4H)-one] |
| 6.40 | Cc1cc(-n2nc3c(c2-n2ccn(-c4ccc5c(cnn5C)c4C)c2=O)[C@@H]2COC[C@H](C3)N2C(=O)c2cc3cc([C@H]4CCOC(C)(C)C4)ccc3n2[C@@]2(c3noc(=O)[nH]3)C[C@@H]2C)cc(C)c1F [Compound 228, 3-[(1S,2S)-1-[2-[(1R,8S)-3-[3-(1,4-dimethylindazol-5-yl)-2-oxo-imidazol-1-yl]-4-(4-fluoro-3,5-dimethyl-phenyl)-10-oxa-4,5,12-triazatricyclo[6.3.1.02,6]dodeca-2,5-diene-12-carbonyl]-5-[(4S)-2,2-dimethyltetrahydropyran-4-yl]indol-1-yl]-2-methyl-cyclopropyl]-4H-1,2,4-oxadiazol-5-one] |
| 5.61 | Cc1cc(-n2nc3c(c2-n2ccn(-c4ccc5c(cnn5C)c4F)c2=O)[C@@H]2CC[C@H](C3)N2C(=O)c2cc3sc([C@H]4CCOC(C)(C)C4)nc3n2[C@@]2(c3noc(=O)[nH]3)C[C@@H]2C)cc(C)c1F [Compound 306, 3-[(1S,2S)-1-[2-[(4S)-2,2-dimethyltetrahydropyran-4-yl]-5-[(1S,8R)-4-(4-fluoro-3,5-dimethyl-phenyl)-3-[3-(4-fluoro-1-methyl-indazol-5-yl)-2-oxo-imidazol-1-yl]-4,5,11-triazatricyclo[6.2.1.02,6]undeca-2,5-diene-11-carbonyl]pyrrolo[2,3-d]thiazol-4-yl]-2-methyl-cyclopropyl]-4H-1,2,4-oxadiazol-5-one] |

| Compound | pEC50 |
| --- | --- |
| Cc1cc(-n2nc3c(c2-n2ccn(-c4ccc5c(cnn5C)c4F)c2=O)[C@H]2CC[C@@H]([C@H]3F)N2C(=O)c2cc3cc([C@H]4CCOC(C)(C)C4)ccc3n2[C@@]2(c3noc(=O)[nH]3)C[C@@H]2C)cc(C)c1F [Compound 514, 3-[(1S,2S)-1-[5-[(4S)-2,2-dimethyltetrahydropyran-4-yl]-2-[(1R,7R,8S)-7-fluoro-4-(4-fluoro-3,5-dimethyl-phenyl)-3-[3-(4-fluoro-1-methyl-indazol-5-yl)-2-oxo-imidazol-1-yl]-4,5,11-triazatricyclo[6.2.1.02,6]undeca-2,5-diene-11-carbonyl]indol-1-yl]-2-methyl-cyclopropyl]-4H-1,2,4-oxadiazol-5-one] | ≤ 5.00 |

Same assay, conditions: text to Table 1d, bridge atoms configured out of the plane or toward the reader

| Compound | potency |
| --- | --- |
| Cc1cc(-n2nc3c(c2-n2ccn(-c4ccc5c(cnn5C)c4F)c2=O)[C@H]2CC[C@@H]([C@H]3F)N2C(=O)c2cc3cc([C@H]4CCOC(C)(C)C4)ccc3n2[C@@]2(c3noc(=O)[nH]3)C[C@@H]2C)cc(C)c1F [Compound 514, 3-[(1S,2S)-1-[5-[(4S)-2,2-dimethyltetrahydropyran-4-yl]-2-[(1R,7R,8S)-7-fluoro-4-(4-fluoro-3,5-dimethyl-phenyl)-3-[3-(4-fluoro-1-methyl-indazol-5-yl)-2-oxo-imidazol-1-yl]-4,5,11-triazatricyclo[6.2.1.02,6]undeca-2,5-diene-11-carbonyl]indol-1-yl]-2-methyl-cyclopropyl]-4H-1,2,4-oxadiazol-5-one] | little or no potency |
